From patent publication US20120316241A1, “REMEDY FOR CARTILAGE-RELATED DISEASES” (ONO PHARMACEUTICAL CO., LTD., priority 2003, published 2012) come the findings set out here.

One assay concerns chondrocyte strain. The assay is described as follows: gene expression profile by cDNA microarray, reconfirmed by RT-PCR. The class given is cell-based, mouse. The settings on record: 1 μM, 72 hours, medium with 5 μM indometacin. As to the method:
Culturing of each chondrocyte was started at a cell density of 3×10^5 cells/100 mm culture dish, and 2 days and 21 days thereafter, respective total RNA samples were prepared using Trizol Reagent (mfd. by Life Technologies) in accordance with the instructions attached thereto. The RT reaction was carried out in accordance with the instructions attached to RT-PCR kit (mfd. by Life Technologies) using 1 μg of the thus prepared total RNA. The PCR reaction was carried out in 25 μl of a reaction liquid (20 μmol sense primer, 20 μmol antisense primer, 25 mM MgCl2, 0.2 mM dNTP, 1 unit γTaq polymerase (mfd. by TOYOBO., LTD.)) containing 1 μl of the RT reaction liquid. The PCR reaction (in the reaction, starting reaction was carried out at 94° C. for 5 minutes, and then the following reaction (denaturation reaction at 94° C. for 1 minute, annealing reaction at 72° C. for 1 minute and elongation reaction at 72° C. for 7 minutes) was carried out 35 times) was carried out using Gene Amp 9700 (mfd. by PE Applied Biosystem). Sequences of the primers used in the above RT-PCR are shown in the following.
Gene expression profile of chondrocytes was analyzed by a custom-made cDNA microarray system. This system was prepared by spotting 78 species of bone- and cartilage-related mouse genes and 900 species of mouse genes (InteliGene CHIP ver. 1) (mfd. by Takara Bio INC.) on a glass slide.
A chondrocyte was cultured for 72 hours in DMEM/F12 medium (contains 5 μM indometacin) in the presence or absence of each of the selective EP agonists shown in Example 2 (1 μM), and respective total RNA samples were extracted. A fluorescent cDNA probe was synthesized using 20 μg of each of the total RNA samples as the template, and using 400 U of M-MLV reverse transcriptase and Cy3 or Cy5-dUTP (Amersham Biosciences).
Each cDNA probe dissolved in a reaction buffer (6×SSC/0.2% SDS, 5×Denhardt's solution, 0.1 mg/ml denatured salmon sperm DNA) was allowed to hybridize with the spots on the glass slide at 65° C. overnight. The slide was washed with a washing liquid (2×SSC/0.2% SDS) twice at 55° C. for 5 minutes and then once at 65° C. for 5 minutes, and finally washed with 0.05×SSC solution at room temperature for 1 minute. The hybridization signal was visualized by Affymetrix 418 Array Scanner (mfd. by Affymetrix), and analyzed by ImaGene software (mfd. by BioDiscovery). Regarding the expressed genes in which changes were confirmed, reconfirmation was carried out by the RT-PCR method.

Assay [1] relates to rat femur head articular cartilage. As to the kind of experiment: PCNA immunohistological staining of organ-cultured articular cartilage. The settings on record: 1 μM, after 7 days of organ culture. As to the method: (§1) The cartilage deficiency model was prepared from a femoral condyle articular cartilage collected from a rat of 5 weeks of age, by cutting the cartilage layer alone such that damage is not given to the subchondral bone. The femur was soaked in the DMEM/Ham's F12 medium (contains 5 μM indometacin) and cultured for 21 days in the presence (treated group) or absence (control group) of the selective EP agonist described in Example 2 (10 μM or 1 μM). Area of the newly formed cartilage tissue was measured using Image-Pro Plus software (mfd. by Planetron) and calculated as an area ratio with the untreated lateral joint face.
(§2) The formalin-fixed sections were prepared on the 0th day, 7th day, 14th day and 21st day starting from the commencement of tissue culturing described in Example 8. Each section was decalcified with EDTA (10% w/v) for 7 days and then sliced into a section of 4 μm in thickness. The hematoxylin-eosin staining and alcian blue staining were carried out by the aforementioned method.
Regarding the PCNA immuno histological staining, the prepared slide was treated with 3% hydrogen peroxide and then subjected to a blocking treatment using a blocking solution (mfd. by Dako Cytomation). […] After washing, the reaction with a substrate, 3,3′-diaminobenzidine tetrahydrochloride (mfd. by Dako Cytomation), was detected. […]

In assay [2] the test system is human primary-cultured chondrocyte. As to the kind of experiment: cell growth activity, BrdU incorporation assay. The format is cell-based. The settings on record: 1 μM overnight, then 8 hours with BrdU; normal cartilage and RA articular cartilage derived cells. As to the method: Human primary-cultured chondrocytes were isolated from knee articular cartilages of three patients who underwent above-knee amputation due to femur osteosarcoma. In addition, other human primary-cultured chondrocytes were obtained from rheumatic arthritis patients who underwent artificial hip joint replacement. Isolation operation of these cells was also carried out by the method described in the above.
The cell growth activity was measured by a BrdU incorporation assay using BrU labeling, detection kit (mfd. by Boehringer Mannheim GmbH).
Culturing of each chondrocyte was started at a cell density of 2×10^3 cells/96 well culture dish, and after adhesion of the cells, the selective EP agonist described in Example 2 (1 μM) was added thereto to start the culturing at 37° C. overnight. Subsequently, the culturing was continued for 8 hours together with BrdU (final concentration 110 μM), and the labeled nucleus was detected by the method of the instructions attached to the kit.

The next assay deals with MMA2 chondrocyte strain. As to the kind of experiment: intracellular cAMP concentration (cAMP assay kit). The format is cell-based, mouse. The settings on record: 12 hours with agonist. The protocol:
Cartilage tissues of a femur and the shinbone collected from a p53 defective mouse of 4 weeks of age (Tukada, T., Oncogene, 1992, vol. 8, pp. 3313-3322) were cut into pieces, treated with 0.1% collagenase and then cultured (culture conditions; 5% CO2, 37° C., under humidification, hereinafter, this was carried out under the same conditions) using DMEM/Ham's F12 (1:1) medium (contains 10% fetal bovine serum (FBS) and antibiotics (to be referred to as DMEM/Ham's F12 medium hereinafter)). By carrying out dilution sub-culturing from the cell group under a 80 to 90% confluent state, a chondrocyte strain MMA2 recognized by an international deposition number FERM BP-10029 was isolated. […]
Culturing of each chondrocyte was started at a cell density of 1×10^4 cells/24 well culture dish, and 2 hours thereafter, each of the selective EP agonists shown in Example 2 was added thereto to continue the culturing for additional 12 hours. The intracellular cAMP concentration was measured using a cAMP assay kit (Cayman Chemical Company) and in accordance with the instructions attached to the kit, using, as a sample, lysed supernatant of the cell prepared by lysing the same with a cell lysis liquid (0.1 mM Tris/HCl buffer, pH 7.2).
(In general: Cyclic AMP is a second messenger, typically raised through Gs and lowered through Gi signalling.)

For assay [3], the system named is femoral condyle articular cartilage. As to the kind of experiment: cartilage deficiency model, femoral condyle articular cartilage organ culture. More on the design: species or system rat. The protocol: as §1, §2

With `CCCCC[C@@H](/C=C/[C@H]1[C@H](OC)CC(=O)[C@@H]1C/C=C\CCCC(=O)O)OC` [EP3 agonist, 11α,15α-dimethoxy-9-oxoprosta-5Z,13E-dienoic acid], in the assay with chondrocyte strain, the “expression of fibronectin, integrin, cyclin D1, MAZ, AP2α and 14-3-3γ genes” value is “stimulated”; the “expression of osteopontin and MGP genes” value is recorded as “reduced”. For the same molecule, the PCNA staining affinity result in assay [1] is recorded as “distinctively increased”.

As for `C=CCC1(C(O)C/C=C/[C@@H]2[C@@H](C/C=C\CCCC(=O)O)[C@H](Cl)C[C@H]2O)CCC1` (stereo partly drawn) [EP2 agonist, (5Z,9β,11α,13E)-17,17-propano-11,16-dihydroxy-9-chloroprostar-5,13,19-trienoic acid], in the assay with chondrocyte strain, the “expression of fibronectin, integrin, cyclin D1, MAZ, AP2α and 14-3-3γ genes” value is “stimulated”; the “expression of osteopontin and MGP genes” value is reported as “reduced”. In addition, in assay [1], the PCNA staining affinity entry is listed as “distinctively increased”. Also, the “DNA synthesis (BrdU incorporation)” value in assay [2] is reported as “DNA synthesis accelerating effect”. The “intracellular cAMP” value in the assay on MMA2 chondrocyte strain is listed as “increased concentration-dependently”. Besides, the “ratio of the regenerated tissue (area ratio with the untreated lateral joint face)” value in assay [3] (1 μM or 10 μM, cultured for 21 days) is “increased periodically and concentration-dependently”. Also, in assay [3] (treated group against control group, 21 days), the “tissue regeneration image (hematoxylin-eosin, alcian blue staining)” value is “a regeneration image having a staining affinity of similar to that of a remaining existing cartilage (right side) was observed”.
